Laboratory results taken from patent US6461997B1, “Triazole sulfones having herbicidal activity” (Monsanto Technology LLC, priority 1999, dated 2002).

tested on: CONAR (field bindweed); assay: Pre-emergence herbicidal activity, warm season; assay type: in vivo, Convolvulus arvensis; conditions: GR80 = lowest tested rate (300, 100, 30, 10 g/ha) with 80% or greater inhibition; approx. 14 days after treating; 30/21° C.
Summary of the method: (§1)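 Seeds sown in sterilised fertilised topsoil received surface-applied compound in 50:50 acetone/water, typically at 300, 100, 30 and 10 g/ha, then greenhouse-grown at 30/21° C (warm-season species) or 18/13° C (cool-season species). Percent inhibition versus untreated plants was scored at about 14 days, giving GR80; an asterisk marks activity short of 80% at the top rate.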

Row | Structure (SMILES) | Pre-emergence activity (GR80) CONAR
1 | CCN(CC)C(=O)n1cnc(S(=O)(=O)C(F)(F)C(F)(F)SC)n1 [Example 14] | * (activity observed, at least at highest rate, but <80% inhibition)

tested on: SASKR (russian thistle); assay: Pre-plant incorporated (PPI) herbicidal activity, cool season; assay type: in vivo, Salsola kali; conditions: weed, PPI application, 10 g/ha
Procedure: (§2) In another set of tests, the pre-plant incorporated (PPI) activity of compounds of this invention was evaluated on the same species as for the pre-emergence tests described above. In the PPI tests the following procedure, designed to simulate PPI application, was used.
(§3) A pre-prepared topsoil mixture (described above) was placed in a pot and compacted to a depth of 1.0 to 1.25 cm from the top of the pot. Seeds of each of several monocotyledonous and dicotyledonous annual plant species were placed on top of the soil. A sufficient quantity of soil to cover the seeds and level fill the pot was weighed into an open container. A known amount of the test compound was dissolved or suspended in an organic solvent and applied by spraying to this cover soil. The cover soil was thoroughly mixed to distribute the test compound throughout the cover soil, and was then applied as a cover layer over the seeds. Untreated soil was used as a cover layer for control pots. After treatment the plants were placed in a greenhouse where they received 0.64 cm of overhead irrigation. All subsequent watering consisted of a light overhead mist and/or subirrigation as needed for germination and growth. Tables 9 and 10 below relate to warm season plant species which were placed after pre-emergence treatment in a greenhouse with a 30/21° C. day/night temperature regime. Tables 11 and 12 below relates to cool season plant species placed after pre-emergence treatment in a greenhouse or growth chamber with an 18/13° C. day/night temperature regime. Only the compounds of Examples 1, 6, 8, 11, 13 and 15-20 were included in PPI tests.
(§4) Approximately 14 days after planting and treating, the plants were observed and herbicidal efficacy recorded as percent inhibition by comparison with untreated plants.

Row | Structure (SMILES) | Percent inhibition SASKR
2 | CCN(CC)C(=O)n1cnc(S(=O)(=O)C(F)(F)SCc2ccccc2)n1 [Example 10] | 10%

same assay, conditions: weed, PPI application, 30 g/ha

Row | Structure (SMILES) | Percent inhibition SASKR
3 | CCN(CC)C(=O)n1cnc(S(=O)(=O)C(F)(F)SCc2ccccc2)n1 [Example 10] | 20%

same assay, conditions: weed, PPI application, 100 g/ha

Row | Structure (SMILES) | Percent inhibition SASKR
4 | CCN(CC)C(=O)n1cnc(S(=O)(=O)C(F)(F)SCc2ccccc2)n1 [Example 10] | 90%

same assay, conditions: weed, PPI application, 300 g/ha

Row | Structure (SMILES) | Percent inhibition SASKR
5 | CCN(CC)C(=O)n1cnc(S(=O)(=O)C(F)(F)SCc2ccccc2)n1 [Example 10] | 100%

same assay, conditions: weed, PPI application, 900 g/ha

Row | Structure (SMILES) | Percent inhibition SASKR
6 | CCN(CC)C(=O)n1cnc(S(=O)(=O)C(F)(F)SCc2ccccc2)n1 [Example 10] | 100%

tested on: IPOSS (annual morningglory); assay: Pre-plant incorporated (PPI) herbicidal activity, warm season; assay type: in vivo, Ipomoea spp.; conditions: PPI application, 10 g/ha
Procedure: as §2, §3, §4

Row | Structure (SMILES) | Percent inhibition IPOSS
7 | CCN(CC)C(=O)n1cnc(S(=O)(=O)C(F)(F)SCc2ccccc2)n1 [Example 10] | 0%

same assay, conditions: PPI application, 30 g/ha

Row | Structure (SMILES) | Percent inhibition IPOSS
8 | CCN(CC)C(=O)n1cnc(S(=O)(=O)C(F)(F)SCc2ccccc2)n1 [Example 10] | 0%

same assay, conditions: PPI application, 100 g/ha

Row | Structure (SMILES) | Percent inhibition IPOSS
9 | CCN(CC)C(=O)n1cnc(S(=O)(=O)C(F)(F)SCc2ccccc2)n1 [Example 10] | 0%

same assay, conditions: PPI application, 300 g/ha

Row | Structure (SMILES) | Percent inhibition IPOSS
10 | CCN(CC)C(=O)n1cnc(S(=O)(=O)C(F)(F)SCc2ccccc2)n1 [Example 10] | 0%

same assay, conditions: PPI application, 900 g/ha

Row | Structure (SMILES) | Percent inhibition IPOSS
11 | CCN(CC)C(=O)n1cnc(S(=O)(=O)C(F)(F)SCc2ccccc2)n1 [Example 10] | 50%

tested on: AGRRE (quackgrass (seedling)); assay: Pre-emergence herbicidal activity, cool season; assay type: in vivo, Elymus repens; conditions: GR80 = lowest tested rate (300, 100, 30, 10 g/ha) with 80% or greater inhibition; approx. 14 days after treating; 18/13° C.
Summary of the method: as §1

Row | Structure (SMILES) | Pre-emergence activity (GR80) AGRRE
12 | CCN(CC)C(=O)n1cnc(S(=O)(=O)C(F)(F)C(F)(F)SC)n1 [Example 14] | * (activity observed, at least at highest rate, but <80% inhibition)

tested on: AVEFA (wild oat); assay: Pre-emergence herbicidal activity, cool season; assay type: in vivo, Avena fatua; conditions: GR80 = lowest tested rate (300, 100, 30, 10 g/ha) with 80% or greater inhibition; approx. 14 days after treating; 18/13° C.
Summary of the method: as §1

Row | Structure (SMILES) | Pre-emergence activity (GR80) AVEFA
13 | CCN(CC)C(=O)n1cnc(S(=O)(=O)C(F)(F)C(F)(F)SC)n1 [Example 14] | 300 g/ha
